# Assays:
# [1] = tested on: SF268 (glioblastoma) tumor cell line; experiment: MTT proliferation assay, SF268; format: cell-based; settings: Homo sapiens, SF-268, 120 h, 5 days
# Protocol: (§1) Human tumor cell lines were obtained from the American Type Culture Collection, the National Cancer Institute or from the originator as a kind gift. All cells were grown in RPMI 1640 (Invitrogen) medium containing 10% fetal bovine serum and 2 mM L-glutamine.
# (§2) Logarithmically growing cells cultured in T75 flasks (Falcon) were harvested and inoculated into 96 well microtiter plates in 100 μL at plating densities ranging from 2,000 to 5,000 cells/well depending on the doubling time of individual cell lines. After cell inoculation, the microtiter plates are incubated at 37° C., 5% CO2, 95% air and 100% relative humidity for 24 h prior to addition of drug.
# (§3) After 24 h, one plate of each cell line is developed with MTT (3-4,5-Dimethylthiazol-2-yl)-2,5-diphenyltetrazolium bromide, yellow), which is reduced to purple formazan in the mitochondria of living cells. […] The absorbance of this colored solution can be quantified by measuring at a certain wavelength (usually between 500 and 600 nm) by a spectrophotometer. […] The d0 growth value for each cell line is later deducted from each of the readouts at termination of the experiment. Essentially the final readouts are normalized for baseline growth, which enables us direct deduction of growth inhibition parameters from the graphed data. […]
# (§4) Two independent experiments were conducted and the IC50 concentrations calculated plus/minus standard deviation.
# [2] = tested on: DU-145 (prostate) tumor cell line; experiment: MTT proliferation assay, DU-145; format: cell-based, human; settings: FIG. 1C
# Protocol: as §1, §2, §3, §4
# [3] = tested on: H460 (lung) tumor cell line; experiment: MTT proliferation assay, H460; format: cell-based, human; settings: FIG. 1B
# Protocol: as §1, §2, §3, §4
# [4] = tested on: H23 (lung) tumor cell line; experiment: MTT proliferation assay, H23; format: cell-based, human; settings: FIG. 1A
# Protocol: as §1, §2, §3, §4
# [5] = tested on: human tumor cell lines; experiment: MTT proliferation assay, human tumor cell lines; format: cell-based; settings: H23, H460, DU-145; IC50 comparison
# Protocol: as §1, §2, §3, §4
SMILES,IC50 [1],IC50 values (range in words) [2],IC50 values (range in words) [3],IC50 values (range in words) [4],potency compared with VMD in the same cell lines [5]
O=C(O)c1ccc(N2CCN(CCCn3c4c(n[n+]3[O-])C(=O)c3ccccc3C4=O)CC2)cc1 [Compound 101],330 nM,,,,
CN(C)CC[C@H](CSc1ccccc1)Nc1ccc(S(=O)(=O)NC(=O)c2ccc(N3CCN(Cc4ccccc4-c4ccc(Cl)cc4)CC3)cc2)cc1[N+](=O)[O-] [Abt-737],,high μM range,high μM range,high μM range,at least two-order of magnitude less potent

# Reference: patent publication US8618110B2, “Compositions and methods for apoptosis modulators” (VM Discovery Inc., priority 2007, dated 2013)
